Measurements taken from patent US10675267B2, “Methods for detection and eradication of myeloid leukemia stem cells” (priority 2015, dated 2020).
Entries after “also recorded” stand apart in the source; their conditions may differ.

System: AML-37 human LSC engrafted in Rag2−/−γc−/− mice
Assay: sAML PRIMAGRAFT model AML-37: FACS engraftment analysis and serial transplantation
Format: in vivo, mouse
Method: All animal studies were performed in accordance with UCSD and NIH-equivalent ethical guidelines and were approved by the Institutional Animal Care and Use Committee (IACUC protocol # S06015). For all in vivo experiments, animals of both genders were utilized. Three AML PRIMAGRAFT™ models were established by transplanting AML LSC-enriched cell fractions (either CD34-selected or FACS-purified stem or progenitor cell fractions from primary patient samples) into immunocompromised Rag2^−/−γc^−/−[20] or NOD/SCID-IL2RG mice (Jackson Laboratory) constitutively expressing human SCF, GM-CSF and IL-3 (NSGS) (FIGS. 8A-8D). For all transplantations into Rag2^−/−γc^−/− animals, neonatal mice were transplanted with human cells intrahepatically as previously described, and for all transplantations into NSGS animals, sublethally irradiated (300 Rad) adult (6-8 weeks old) mice were transplanted intravenously with 1-2×10^5 CD34^+ human cells.
For in vivo treatments, a 10 mg/mL stock solution of 17S-FD-895 solubilized in DMSO was used. After randomization, AML-engrafted mice were dosed intravenously with 17S-FD-895 (5-10 mg/kg) or vehicle (for AML-08, vehicle control=15% DMSO in PBS; for AML-37, vehicle control=20% DMSO in PBS) three times over a two-week period, with the first dose given on day 1, the second on day 7, and the third on day 14. For preparation of RNA from human LSC-enriched populations, single cell suspensions from spleen and bone marrow were CD34 double-selected (over two LS selection columns, Miltenyi) and 1-2×10^5 cells were collected in lysis buffer or pooled according to treatment group for serial transplantation assays.
Mice transplanted with 1-2×10^5 CD34^+ AML LSC-enriched fractions or no-transplant controls were screened for human hematopoietic cell engraftment (CD45^+ cells) in peripheral blood by FACS starting at 7-10 weeks post transplant. At 7-28 weeks post-transplant (7-36 weeks old), mice were euthanized, and peripheral blood and single cell suspensions of hematopoietic organs were analyzed for human cell engraftment by FACS. Total cell suspensions from bone marrow and spleen were either transplanted immediately or CD34-selected for transplant into secondary recipient mice (1-2×10^5 cells per animal) to expand the cells in vivo. […] Secondary recipient mice were euthanized after 8-23 weeks, and cell suspensions from bone marrow and spleen were CD34-selected for transplant into tertiary recipients for 17S-FD-895 treatment.
The 17S-FD-895 dosing regimen was selected as the maximum number of doses possible for the treatment of three experimental groups with the amount of synthesized compound that was available, and is consistent with weekly IV dosing regimens used in clinical trials of spliceosome inhibitory compounds in patients with solid tumors. Animals were euthanized within two hours after delivery of the final dose of 17S-FD-895, and peripheral blood, spleens and bone marrows were collected for analysis of total human cell and stem and progenitor cell engraftment, and for RNA extraction for splice isoform-specific qRT-PCR.
Flow cytometric analysis was performed on single cell suspensions from each hematopoietic tissue essentially as for primary patient samples, and frequencies of total live human CD45^+ cells, and CD45^+CD34^+CD38^− Lin^− (stem) and CD45^+CD34^+CD38^+ Lin^− (progenitor) cells were determined in each tissue. Analysis of progenitor cell subpopulations was performed for AML-37, with GMP identified as CD123^+CD45RA^+, CMP as […] and megakaryocyte-erythroid progenitors (MEP) as […]. Inclusion/exclusion criteria were pre-established based on minimum CD45^+ cell engraftment rates of 1% in peripheral blood, as determined by previous PRIMAGRAFT™ experiments. […]

CC[C@H](OC)[C@@H](C)[C@H]1O[C@@H]1[C@@H](O)[C@H](C)/C=C/C=C(\C)[C@H]1OC(=O)C[C@H](O)CC[C@@](C)(O)[C@@H](OC(C)=O)/C=C/[C@@H]1C (stereo in doubt) [Formula 17S-FD-895, 17S-FD-895]
common myeloid progenitor (CMP) frequency (AML-37, 5 or 10 mg/kg): slight increase
GMP frequency (AML-37, 5 or 10 mg/kg, hematopoietic tissues): reduced GMP frequency; also recorded: significantly reduced
human leukemic burden in serial transplant recipients (recipients of CD34+ cells from 10 mg/kg group versus vehicle controls): marked reduction; also recorded: marked decrease
reduction of human stem cells (CD45+CD34+CD38− Lin−) (spleens, 10 mg/kg group versus vehicle controls, p<0.05): 68%
reduction of human progenitor cells (CD45+CD34+CD38+ Lin−) (spleens, 10 mg/kg group versus vehicle controls, p=0.08): 80%
human HSPC frequency (spleens, 10 mg/kg versus vehicle): decrease in human HSPC frequency
